For 1 molecule, IC50 results are on record in ChEMBL document CHEMBL5728053, “Dihydropyrrolopyridine inhibitors of ROR-gamma” (2020).

The test deals with T1, Nuclear receptor ROR-gamma (Homo sapiens, UniProt P51449).
T1 sequence (P51449 whole entry): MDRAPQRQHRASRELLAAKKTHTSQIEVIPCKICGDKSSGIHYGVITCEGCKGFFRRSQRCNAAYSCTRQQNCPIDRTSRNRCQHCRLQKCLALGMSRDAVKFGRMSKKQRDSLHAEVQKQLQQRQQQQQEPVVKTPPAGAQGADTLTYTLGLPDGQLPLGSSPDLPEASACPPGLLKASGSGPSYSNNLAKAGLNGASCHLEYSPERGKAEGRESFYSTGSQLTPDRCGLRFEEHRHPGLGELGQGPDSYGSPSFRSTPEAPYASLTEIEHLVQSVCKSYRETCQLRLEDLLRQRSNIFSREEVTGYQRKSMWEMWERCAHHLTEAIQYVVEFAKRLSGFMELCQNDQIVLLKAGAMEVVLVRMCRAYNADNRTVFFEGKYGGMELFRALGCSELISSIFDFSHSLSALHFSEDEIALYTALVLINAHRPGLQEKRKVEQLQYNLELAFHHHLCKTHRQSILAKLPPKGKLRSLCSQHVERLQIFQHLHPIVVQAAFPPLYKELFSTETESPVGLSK
Kind of test: RORgammat 5xRORE Assay in Jurkat Cells (Assay 2) : Compounds of the present invention were tested for RORγ inverse agonist activity in a cell-based, transcriptional activity assay. […] (Promega, Cat. # N1021) using KpnI and HindIII restriction sites. […] Luciferase activity in the conditioned supernatants was determined with NanoGlo® assay reagents (Promega, Cat. # N1130).

The IC50 is the concentration needed to halve the response being measured. Higher therefore signals weaker potency.

On to `CCS(=O)(=O)c1ccc(CNC(=O)c2cnc3c(c2)C(=O)N(Cc2ccc(Cl)cc2)[C@H]3C(C)C)cc1`, for which the half-maximal inhibitory concentration (IC50) lay in the range of 100 to 1000 nM.
